The values below are quoted from earlier work in US11857566B2, “Sulfonated polystyrene derivative for use in the treatment and/or prophylaxis of cat flu” (UNIWERSYTET JAGIELLONSKI, priority 2018, dated 2024).

The conditions of series [1]: in vivo.

As for `Nc1nc2c(ncn2CCC(CO)CO)c(=O)[nH]1` [PCV, penciclovir], the “concentration of PCV in cats” value (after famciclovir) was “much lower than expected”. `CC(C)[C@H](N)C(=O)OCCOCn1cnc2c(=O)[nH]c(N)nc21` [VCV, Valaciclovir]: in series [1], the “adverse effects in cats” value was “many adverse effects, such as bone marrow suppression or liver and kidney necrosis leading to animal death”. The “symptoms of the disease in cats who took the drug” value in the series with FHV (in vivo) is “did not improve symptoms of the disease”. Regarding `Nc1nc2c(ncn2COCCO)c(=O)[nH]1` [acyclovir], the bioavailability in cats entry (in vivo) was “low”. Moreover, the activity in cats entry in the series with FHV (compared with HSV-1 in humans) was “did not show equally high activity”. Consider `CC(=O)OCC(CCn1cnc2cnc(N)nc21)COC(C)=O` [famciclovir], for which the “safety in treatment and prophylaxis of FHV infection in cats” value in series [1] is on record as “has been shown to be safe”. As for `[Cl-].[Li+]` [lithium chloride], the “in vitro antiviral activity against FCV” value with FCV was “very high in vitro antiviral activity”. In the case of `OC(c1cc(C(F)(F)F)nc2c(C(F)(F)F)cccc12)C1CCCCN1` (stereo not drawn) [mefloquine], the “in vitro antiviral activity against FCV” value in the series on FCV was “very high in vitro antiviral activity”. Regarding `NC(=O)c1ncn([C@@H]2O[C@H](CO)[C@@H](O)[C@H]2O)n1` [ribavirin], in the series with FCV, the “in vitro antiviral activity against FCV” value was “inhibits FCV infection in vitro”.
